Reference: patent US5736556A, “Tropane-2-aldoxime derivatives as nevro transmitter reuptake inhibitors” (NeuroSearch A/S, priority 1994, dated 1998)
Structures can show the parent of a compound that is named as a salt. Where two headings read alike, the source gives them in different places.

Tests used:
dopamine transporter [1] = biological target: T1, dopamine transporter (Rattus norvegicus, UniProt P23977); experiment: In vitro inhibition of ^3 H-WIN 35428 binding (corpus striatum); parameters: species or system rat (male Wistar)
T1 construct: Corpus striatum from male Wistar rats (150-200 g) is homogenized; from tissue; host or cells: corpus striatum of male Wistar rats
T1 sequence (P23977 whole entry): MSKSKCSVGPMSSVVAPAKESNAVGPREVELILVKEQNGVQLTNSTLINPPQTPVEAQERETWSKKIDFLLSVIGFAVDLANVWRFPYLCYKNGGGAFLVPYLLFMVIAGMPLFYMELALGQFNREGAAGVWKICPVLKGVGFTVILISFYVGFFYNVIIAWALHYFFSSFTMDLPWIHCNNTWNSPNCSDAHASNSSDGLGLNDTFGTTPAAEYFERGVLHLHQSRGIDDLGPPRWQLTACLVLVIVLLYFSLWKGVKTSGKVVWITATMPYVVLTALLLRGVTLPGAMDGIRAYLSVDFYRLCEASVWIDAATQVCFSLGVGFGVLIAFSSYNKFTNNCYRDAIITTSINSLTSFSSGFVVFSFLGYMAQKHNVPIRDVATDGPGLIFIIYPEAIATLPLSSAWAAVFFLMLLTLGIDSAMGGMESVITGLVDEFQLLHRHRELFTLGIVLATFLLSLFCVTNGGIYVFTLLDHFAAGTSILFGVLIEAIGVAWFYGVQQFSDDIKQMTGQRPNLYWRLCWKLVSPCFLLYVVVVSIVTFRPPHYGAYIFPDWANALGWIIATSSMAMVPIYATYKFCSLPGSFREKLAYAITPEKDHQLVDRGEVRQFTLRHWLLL
Description: The compounds of the present invention have been tested for their ability to bind to the dopamine transporter in the following tests for in vitro and in vivo inhibition of ^3 H-WIN 35428.
In vitro inhibition of ^3 H-WIN 35428 binding
Dopamine transporters/uptake sites on nerve terminals presumably function to terminate neuronal signaling by removing dopamine from the synaptic cleft. The activity or presence of the dopamine transporter integral protein can be measured in vitro with synaptosomal uptake of ^3 H-dopamine or membrane binding assays with ^3 H-ligands known to bind to the transporter.
Numerous ligands of several structural types have been reported to bind at the dopamine uptake site, but it remains questionable whether their binding sites are identical to that of cocaine.
Tissue preparation: Preparations are performed at 0°-4° C. unless otherwise indicated. Corpus striatum from male Wistar rats (150-200 g) is homogenized for 5-10 sec in 10 ml NaH2 PO4 (50 mM, pH 7.4) using an Ultra-Turrax homogenizer. The suspension is centrifuged at 27,000×g for 15 min. The supernatant is discarded and the pellet is resuspended in 50 mM NaH2 PO4, pH 7.4 (1000 ml per g of original tissue) and used for binding assays.
Assay: Aliquots of 0.5 ml tissue are added to […] of ^3 H-WIN 35428 (1 nM, final concentration), mixed and incubated for 60 min at 2° C. Non-specific binding is determined using cocaine ([…], final concentration). After incubation the samples are added 5 ml of ice-cold buffer and poured directly onto Whatman GF/C glass fibre filters under suction and immediately washed with 5 ml ice-cold buffer. The amount of radioactivity on the filters is determined by conventional liquid scintillation counting. Specific binding is total binding minus non-specific binding.
25-75% inhibition of specific binding must be obtained, before calculation of an IC50. The test value is given as IC50 (the concentration (μM) of the test substance which inhibits the specific binding of ^3 H-WIN 35428 by 50%).

dopamine transporter [2] = biological target: T2, dopamine transporter (Mus musculus, UniProt Q61327); experiment: In vivo inhibition of ^3 H-WIN 35428 binding (striatum); parameters: from tissue; host or cells: striatum of living female NMRI mice; species or system mice (female NMRI); settings: ip, mice, inhibition of specific ^3 H-WIN 35428 binding in striatum
T2 sequence (Q61327 whole entry): as the sequence (P23977 whole entry) above, with S21P, A57V, A194S, H600R, L619V counted along it
Protocol: All test substances used are solutions or suspensions prepared in 10% TWEEN 80. Groups of three female NMRI mice (25 g) are injected i.p. with the test substance. […] Tissues are weighed and dissolved for 36 h with 1 ml 2% sodium-laurylsulfat. The solubilized tissue is then added 2 ml of scintillation cocktail, and the amount of radioactivity per mg of tissue is counted by conventional liquid scintillation counting. Groups of untreated mice serves as controls.
The ED50 value is determined from dose response curves.
ED50 =(administered dose, mg/kg)×1/(C0 /Cx -1), where C0 is specific binding in controls and Cx is the specific binding in mice treated with test substance.

[3] = system: immobility time of mice suspended by the tail; experiment: Tail Suspension; type: in vivo, mice (female NMRI); settings: Mus musculus, 0.5 h, oral, 30 min before test, dose reducing the immobility to 100 sec
Protocol: A decrease in the immobility time by mice suspended in their tail is seen after systemic administration of central stimulants and by antidepressants (Steru, L., Chermat, R., Thierry, B. & Simon, P. (1985) The tail suspension test: A new method for screening antidepressants in mice. Psychopharmacology 85:367-370.).
Female NMRI mice (20-25 g) habituated to the room (12 hours light/dark) for at least 16 hours and housed 25 per cage are used. The mice are suspended by the tail with adhesive tape to a rod 30 cm above the lab. bench 30 min after an oral administation of vehicle or drug. For the next 6 min the accumulated duration of immobility defined as no movements by the body or extremities (however head movements are not defined as movements) are noted, Six mice per dose are used.
Saline or vehicle treated mice have immobility time scores between 160-180 sec in average. An ED50 -value is calculated by graphical interpolation from at least 3 doses as the dose reducing the immobility to 100 sec.

dopamine transporter [4] = biological target: T2, dopamine transporter; settings: cited from earlier work
[5] = rat corpus striatum, ^3 H-WIN 35428 1 nM, 60 min at 2° C., read-out: in vitro IC50

Row | Structure (SMILES) | IC50 (dopamine transporter [1]; [5]) [nM] | ED50 (dopamine transporter [2]) [mg/kg] | ED50 [3] [mg/kg] | also measured
1 | CC(C)CON=C[C@@H]1[C@@H](c2ccc(Cl)c(Cl)c2)C[C@@H]2CC[C@H]1N2C [(1R,2R,3S)-3-(3,4-Dichlorophenyl)tropane-2-O-(2-methylpropyl)-aldoxime hydrochloride] | 56 | – | – | –
2 | C=CCON=C[C@@H]1[C@@H](c2ccc(Cl)c(Cl)c2)C[C@@H]2CC[C@H]1N2C [(1R,2R,3S)-3-(3,4-Dichlorophenyl)tropane-2-O-(2-propenyl)-aldoxime hydrochloride] | 22 | – | – | –
3 | C#CCON=C[C@@H]1[C@@H](c2ccc(Cl)c(Cl)c2)C[C@@H]2CC[C@H]1N2C [(1R,2R,3S)-3-(3,4-Dichlorophenyl)tropane-2-O-(2-propynyl)-aldoxime hydrochloride] | 19 | – | – | –
4 | CN1[C@H]2CC[C@@H]1[C@H](C=NOCC1CC1)[C@@H](c1ccc(Cl)c(Cl)c1)C2 [(1R,2R,3S)-3-(3,4-Dichlorophenyl)tropane-2-O-cyclopropylmethyl-aldoxime hydrochloride] | 20 | – | – | –
5 | CCOC(=O)CON=C[C@@H]1[C@@H](c2ccc(Cl)c(Cl)c2)C[C@@H]2CC[C@H]1N2C [(1R,2R,3S)-3-(3,4-Dichlorophenyl)tropane-2-O-ethoxycarbonylmethyl-aldoxime,hydrochloride] | 24 | > 10 | – | –
6 | CN1[C@H]2CC[C@@H]1[C@H](C=NO)[C@@H](c1ccc(Cl)c(Cl)c1)C2 [(1R,2R,3S)-3-(3,4-Dichlorophenyl)tropane-2-aldoxime] | – | 3.8 | 0.41 | IC50 (dopamine transporter [1]): 3.4 nM
7 | CC(C)CON=C[C@@H]1[C@@H](c2ccc(Cl)c(Cl)c2)C[C@@H]2CC[C@H]1N2C [(1R,2R,3S)-3-(3,4-dichlorophenyl)-tropane-2-O-(2-methylpropyl)-aldoxime] | – | – | 0.8 | –
8 | C=CCON=C[C@@H]1[C@@H](c2ccc(Cl)c(Cl)c2)C[C@@H]2CC[C@H]1N2C [(1R,2R,3S)-3-(3,4-dichlorophenyl)-tropane-2-O-(2-propenyl)-aldoxime] | – | – | 0.23 | –
9 | C#CCON=C[C@@H]1[C@@H](c2ccc(Cl)c(Cl)c2)C[C@@H]2CC[C@H]1N2C [(1R,2R,3S)-3-(3,4-dichlorophenyl)-tropane-2-O-(2-propynyl)-aldoxime] | – | – | 0.04 | –
10 | CN1[C@H]2CC[C@@H]1[C@H](C=NOCc1ccccc1)[C@@H](c1ccc(Cl)c(Cl)c1)C2 [(1R,2R,3S)-3-(3,4-dichlorophenyl)-tropane-2-O-benzyl-aldoxime, HCl] | 76 | > 10 | 2 | –
11 | CN1[C@H]2CC[C@@H]1[C@H](C=NOCC1CC1)[C@@H](c1ccc(Cl)c(Cl)c1)C2 [(1R,2R,3S)-3-(3,4-dichlorophenyl)-tropane-2-O-cyclopropylmethyl-aldoxime] | – | – | 0.7 | –
12 | COC(=O)CON=C[C@@H]1[C@@H](c2ccc(Cl)c(Cl)c2)C[C@@H]2CC[C@H]1N2C [(1R,2R,3S)-3-(3,4-dichlorophenyl)tropane-2-O-methoxycarbonylmethyl-aldoxime] | – | – | 0.25 | –
13 | CON=C[C@@H]1[C@@H](c2ccc(Cl)cc2)C[C@@H]2CC[C@H]1N2C [(1R,2R,3S)-3-(4-chlorophenyl)tropane-2-O-methylaldoxime hydrochloride] | 48 | 1 | 0.43 | –
14 | CN1[C@H]2CC[C@@H]1[C@H](C=NO)[C@@H](c1ccc(Cl)cc1)C2 [(1R,2R,3S)-3-(4-chlorophenyl)tropane-2-aldoxime] | – | 1.05 | 0.19 | IC50 (dopamine transporter [1]): 13 nM
15 | CON=C[C@@H]1[C@@H](c2ccc(C)cc2)C[C@@H]2CC[C@H]1N2C [(1R,2R,3S)-3-(4-methylphenyl)tropane-2-O-methyl-aldoxime hydrochloride] | 42 | – | – | –
16 | CN1[C@H]2CC[C@@H]1[C@@H](C=NOCc1ccccc1)[C@@H](c1ccc(Cl)c(Cl)c1)C2 [(1R,2S,3S)-3-(3,4-dichlorophenyl)tropane-2-O-benzyl-aldoxime, hydrochloride] | – | – | 0.94 | –
17 | CON=C[C@H]1[C@@H](c2ccc(Cl)c(Cl)c2)C[C@@H]2CC[C@H]1N2C [(1R,2S,3S)-3-(3,4-dichlorophenyl)tropane-2-O-methyl-aldoxime] | 1.8 | 0.37 | 0.4 | –
18 | CN1[C@H]2CC[C@@H]1[C@@H](C=NO)[C@@H](c1ccc(Cl)c(Cl)c1)C2 [(1R,2S,3S)-3-(3,4-dichlorophenyl)tropane-2-aldoxime] | – | 0.56 | 0.27 | IC50 (dopamine transporter [1]): 2 nM
19 | Fc1ccc(C(OCCN2CCN(CCCc3ccccc3)CC2)c2ccc(F)cc2)cc1 [GBR 12909] | – | – | – | prevention of specific binding of ^3 H-WIN 35428 in vivo (dopamine transporter [4]): partly or completely prevented
